Results reported in patent publication US11667602B2, “Compounds and their use” (AstraZeneca AB, priority 2020, dated 2023).
Like-named read-outs stand apart in the source and are kept apart here.

Target: T1, human RXFP1 (Homo sapiens, UniProt Q9HBX9)
T1 sequence (Q9HBX9 1-757): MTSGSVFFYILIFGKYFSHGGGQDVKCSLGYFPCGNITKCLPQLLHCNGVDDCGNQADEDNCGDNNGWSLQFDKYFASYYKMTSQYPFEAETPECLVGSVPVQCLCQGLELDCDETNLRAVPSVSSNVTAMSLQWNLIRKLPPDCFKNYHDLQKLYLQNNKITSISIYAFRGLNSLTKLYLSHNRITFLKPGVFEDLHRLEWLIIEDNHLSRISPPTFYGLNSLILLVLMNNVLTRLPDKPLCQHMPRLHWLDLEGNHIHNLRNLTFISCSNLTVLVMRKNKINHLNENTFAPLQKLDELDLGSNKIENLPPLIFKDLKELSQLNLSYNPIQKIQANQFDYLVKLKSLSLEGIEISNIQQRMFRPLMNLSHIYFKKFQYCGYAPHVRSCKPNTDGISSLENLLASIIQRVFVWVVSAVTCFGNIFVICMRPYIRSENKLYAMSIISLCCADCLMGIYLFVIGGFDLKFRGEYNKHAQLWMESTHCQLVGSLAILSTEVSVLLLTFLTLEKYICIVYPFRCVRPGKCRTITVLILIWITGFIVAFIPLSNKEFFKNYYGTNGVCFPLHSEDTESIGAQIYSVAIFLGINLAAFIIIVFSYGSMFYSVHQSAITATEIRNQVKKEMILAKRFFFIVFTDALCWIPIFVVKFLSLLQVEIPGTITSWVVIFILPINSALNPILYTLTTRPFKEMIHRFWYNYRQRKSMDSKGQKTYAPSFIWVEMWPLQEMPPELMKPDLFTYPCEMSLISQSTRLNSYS
Experiment: RXFP1 Hu cAMP (Test A)
Type: cell-based
Parameters: expressed in transfected cells; host or cells: Jump-In T-REx CHO-K1 cells (ThermoFisher), induced with 10 ng/ml doxycycline for 24 h
Method in brief: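 Doxycycline-induced (10 ng/ml, 24 h) CHO-K1 cells stably expressing human RXFP1; cAMP read by competitive HTRF after 2 h at room temperature, with 0.5 mM IBMX final.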

[1] = RXFP1 Hu cAMP, read-out: Test A EC50

Row | Compound | Test A Sinf (RXFP1 Hu cAMP) [%] | EC50 [1] [µM] | EC50 (Test A EC50, RXFP1 Hu cAMP) [µM]
1 | (1R,4s)-4-(2-Cyano-4-methoxy-5-(((1R*,2S*,3R*,4S*)-3-(((1-methylcyclobutyl)methyl)carbamoyl)bicyclo[2.2.2]oct-5-en-2-yl)carbamoyl)phenoxy)-1-methylcyclohexane-1-carboxylic acid [Example 541] | 100 | – | –
2 | COc1cc(F)c(O[C@H]2CC[C@@](C)(c3noc(=O)[nH]3)CC2)cc1C(=O)N[C@@H]1[C@H]2CC[C@H](C2)[C@@H]1C(=O)NCC1(C)CCC1 [Example 418, (1R,2S,3R,4S)-3-(4-fluoro-2-methoxy-5-(((1s,4S)-4-methyl-4-(5-oxo-4,5-dihydro-1,2,4-oxadiazol-3-yl)cyclohexyl)oxy)benzamido)-N-((1-methylcyclobutyl)methyl)bicyclo[2.2.1]heptane-2-carboxamide] | 100 | – | 0.064
3 | CC1(CNC(=O)[C@H]2[C@@H]3CC[C@@H](C3)[C@H]2NC(=O)c2cc(O[C@H]3CC[C@@](C)(C(=O)O)CC3)c(F)cc2C#N)CCC1 [Example 377] | 100 | – | –
4 | COc1cc(F)c(OC2CCC(C(=O)O)CC2)cc1C(=O)N[C@H]1[C@@H](C(=O)Nc2cccc(S(=O)(=O)C(F)(F)F)c2)[C@@H]2C=C[C@H]1C2 (mixture of isomers) [Example 457] | 56 | – | –
5 | COc1cc(F)c(O[C@H]2CC[C@@](C)(C(=O)O)CC2)cc1C(=O)NC1C(OC)CCC1C(=O)Nc1cccc(S(=O)(=O)C(F)(F)F)c1 (single isomer, unassigned) [Example 526, (1R,4s)-4-(2-Fluoro-4-methoxy-5-(((1S*,2S*,5S*)-2-methoxy-5-((3-((trifluoromethyl)sulfonyl)phenyl)carbamoyl)cyclopentyl)carbamoyl)phenoxy)-1-methylcyclohexane-1-carboxylic acid] | – | > 40 | –
6 | CCC(CC)NC(=O)c1ccc(C)cc1NC(=O)c1cc(O[C@H]2CC[C@@](C)(C(=O)O)CC2)c(C#N)cc1OC [Example 168] | 121 | > 2.2 | –
7 | COc1cc(F)c(OC[C@H]2C[C@H](C(=O)O)C2)cc1C(=O)N[C@@H]1[C@@H]2CC[C@@H](C2)[C@@H]1C(=O)Nc1cccc(S(=O)(=O)C(F)(F)F)c1 [Example 472, (1R,3r)-3-((2-Fluoro-4-methoxy-5-(((1R,2R,3S,4S)-3-((3-((trifluoromethyl)sulfonyl)phenyl)carbamoyl)bicyclo[2.2.1]heptan-2-yl)carbamoyl)phenoxy)methyl)cyclobutane-1-carboxylic acid] | 91 | – | –
8 | COc1cc(C#N)c(O[C@H]2CC[C@@](C)(C(=O)O)CC2)cc1C(=O)N[C@@H]1[C@H]2CC[C@H](C2)[C@@H]1C(=O)NCCCC1CC1 [Example 132] | 113 | – | –

Second part, led by results:

Row | Test A Sinf (RXFP1 Hu cAMP) [%] | EC50 [1] [µM] | Compound | EC50 (Test A EC50, RXFP1 Hu cAMP) [µM]
9 | 111 | 0.27 | COc1cc(C#N)c(O[C@H]2CC[C@@](C)(C(=O)O)CC2)cc1C(=O)Nc1cc(C)ccc1C(=O)N[C@H]1CC[C@H](C)CC1 [Example 169] | –
10 | 93 | 0.034 | COc1cc(F)c(O[C@H]2CC[C@@](C)(C(=O)O)CC2)cc1C(=O)N[C@@H]1COC[C@@H]1C(=O)Nc1ccc(F)c(S(F)(F)(F)(F)F)c1 (racemic) [Example 344] | –
11 | 86 | 0.78 | COc1cc(F)c(-c2cc(C)c(C(=O)O)c(C)c2)cc1C(=O)N[C@@H]1[C@H]2CC[C@H](C2)[C@@H]1C(=O)Nc1cccc(S(=O)(=O)C(F)(F)F)c1 [Example 252, 2′-Fluoro-4′-methoxy-3,5-dimethyl-5′-(((1S,2R,3S,4R)-3-((3-((trifluoromethyl)sulfonyl)phenyl)carbamoyl)bicyclo[2.2.1]heptan-2-yl)carbamoyl)-[1,1′-biphenyl]-4-carboxylic acid] | –
12 | 104 | 0.029 | COc1cc(F)c(OC2CCC(O)(C(=O)O)CC2)cc1C(=O)NC1C2CCC(C2)C1C(=O)Nc1cccc(S(=O)(=O)C(F)(F)F)c1 [Example 582, (1R,4r)-4-(2-Fluoro-4-methoxy-5-(((1R*,2R*,3S*,4S*)-3-((3-((trifluoromethyl)sulfonyl)phenyl)carbamoyl)bicyclo[2.2.1]heptan-2-yl)carbamoyl)phenoxy)-1-hydroxycyclohexane-1-carboxylic acid] | –
13 | 99 | 0.043 | COc1cc(C#N)c(O[C@H]2CC[C@@](C)(C(=O)O)CC2)cc1C(=O)N[C@@H]1[C@H]2CC[C@H](C2)[C@@H]1C(=O)NC[C@H](C)c1ccccc1 [Example 118] | –
14 | 125 | 0.98 | COc1cc(C#N)c(O[C@H]2CC[C@@](C)(C(=O)O)CC2)cc1C(=O)Nc1cc(C)ccc1C(=O)NCC1(F)CCC1 [Example 172] | –
15 | 90 | 0.18 | COc1cc(F)c(-c2ccc(C(=O)O)cc2)cc1C(=O)N[C@H]1[C@@H](C(=O)Nc2ccc(F)c(C(F)(F)F)c2)[C@@H]2C=C[C@H]1C2 (racemic) [Example 307, rac-2′-Fluoro-5′-(((1R,2R,3S,4S)-3-((4-fluoro-3-(trifluoromethyl)phenyl)carbamoyl)bicyclo[2.2.1]hept-5-en-2-yl)carbamoyl)-4′-methoxy-[1,1′-biphenyl]-4-carboxylic acid] | –
16 | 115 | 0.0064 | COc1cc(F)c(O[C@H]2CC[C@@](C)(C(=O)O)CC2)cc1C(=O)N[C@@H]1CC[C@@H]1C(=O)Nc1ccc(F)c(S(F)(F)(F)(F)F)c1 (racemic) [Example 347] | –
17 | 103 | 0.39 | COc1cc(F)c(O[C@H]2CC[C@@](C)(C(=O)O)CC2)cc1C(=O)N[C@@H]1[C@H]2CC[C@H](C2)[C@@H]1C(=O)NC1CC(F)(F)C1 [Example 619] | –
18 | 104 | 0.008 | COc1cc(F)c(O[C@H]2CC[C@@](C)(C(=O)O)CC2)cc1C(=O)NC1CCCCCC1C(=O)Nc1cccc(S(=O)(=O)C(F)(F)F)c1 (single isomer, unassigned) [Example 516, (1R,4s)-4-(2-Fluoro-4-methoxy-5-(((1S*,2R*)-2-((3-((trifluoromethyl)sulfonyl)phenyl)carbamoyl)cycloheptyl)carbamoyl)phenoxy)-1-methylcyclohexane-1-carboxylic acid] | –
19 | 107 | 15 | COc1cc(F)c(O[C@H]2CC[C@@](C)(C(=O)O)CC2)cc1C(=O)NC1CCN(C(C)=O)CC1C(=O)Nc1cccc(S(=O)(=O)C(F)(F)F)c1 (single isomer, unassigned) [Example 514, (1R,4s)-4-(5-(((3R*,4S*)-1-Acetyl-3-((3-((trifluoromethyl)sulfonyl)phenyl)carbamoyl)piperidin-4-yl)carbamoyl)-2-fluoro-4-methoxyphenoxy)-1-methylcyclohexane-1-carboxylic acid] | –
20 | 100 | 0.12 | COc1cc(F)c(O[C@H]2CC[C@@](C)(C(=O)O)CC2)cc1C(=O)N[C@@H]1[C@H]2CC[C@H](C2)[C@@H]1C(=O)N[C@H](C)C(C)(C)C#N [Example 615] | –
21 | 98 | 0.32 | COc1cc(F)c(O[C@H]2CC[C@@](OC)(C(=O)O)CC2)cc1C(=O)N[C@@H]1[C@H]2CC[C@H](C2)[C@@H]1C(=O)NCC1(C)CCC1 [Example 506, (1R,4r)-4-(2-Fluoro-4-methoxy-5-(((1S,2R,3S,4R)-3-(((1-methylcyclobutyl)methyl)carbamoyl)bicyclo[2.2.1]heptan-2-yl)carbamoyl)phenoxy)-1-methoxycyclohexane-1-carboxylic acid] | –
